Measured values: patent publication US20080269298A1, “Benzimidazol-1-YL-thiophene compounds for the treatment of cancer” (priority 2002, published 2008)

Key:
[1] = biological target: T1, PLK1 kinase domain (Homo sapiens, UniProt P53350); test: Assay for Inhibition of PLK1 (SPA enzyme activity); format: biochemical; details: 2 μM ATP, read-out: Ave pIC50 PLK Enzyme Inhibition (converted)
T1 construct: made in house; host or cells: baculovirus-infected T. ni insect cells

[2] = test system: lung (H460) tumor cell line; test: Methylene Blue Growth Inhibition Assay, H460; format: cell-based; details: Homo sapiens, NCI-H460, 72 h; Cell Line H460, 3 days; read-out: MeB IC50
Summary of the method: (§1)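 3-day compound exposure, 0.3% DMSO, 37° C/10% CO2; DMEM + 10% FBS. Seeding: HFF 5,000, RKO 2,500, H460 2,000 cells/well. Readout methylene blue stain, solubilized in N-lauroyl sarcosine, OD 620 nm. IC50 vs vehicle, Levenberg-Marquardt fit.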

[3] = test system: colon (HCT116) tumor cell line; test: Methylene Blue Growth Inhibition Assay, HCT116; format: cell-based; details: Homo sapiens, HCT-116, 72 h; Cell Line HCT116, 3 days; read-out: MeB IC50
Summary of the method: (§2)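 Growth inhibition is measured as methylene blue-stained biomass (OD 620 nm) after 3 days of compound treatment, relative to vehicle controls. Cells grow in high-glucose DMEM with 10% FBS and 0.3% final DMSO; IC50 comes from nonlinear regression.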

[4] = test system: Normal Human foreskin fibroblasts (HFF); test: Methylene Blue Growth Inhibition Assay, HFF; format: cell-based; details: 72 h, Cell Line HFF, 3 days, read-out: MeB IC50
Summary of the method: as §1

[5] = test system: breast tumor (MCF7) cell line; test: Methylene Blue Growth Inhibition Assay, MCF7; format: cell-based; details: Homo sapiens, 72 h; Cell Line MCF7, 3 days; read-out: MeB IC50
Summary of the method: as §2

[6] = test system: prostate (PC3) tumor cell line; test: Methylene Blue Growth Inhibition Assay, PC3; format: cell-based; details: Homo sapiens, 72 h; Cell Line PC3, 3 days; read-out: MeB IC50
Summary of the method: as §2

[7] = test system: colon (RKO) tumor cell line; test: Methylene Blue Growth Inhibition Assay, RKO; format: cell-based; details: Homo sapiens, 72 h, 3 days, read-out: MeB IC50
Summary of the method: as §1

[8] = test system: A549; test: Methylene Blue Growth Inhibition Assay, A549; format: cell-based; details: Homo sapiens; Cell Line A549; read-out: MeB IC50

T1 sequence (P53350 21-346): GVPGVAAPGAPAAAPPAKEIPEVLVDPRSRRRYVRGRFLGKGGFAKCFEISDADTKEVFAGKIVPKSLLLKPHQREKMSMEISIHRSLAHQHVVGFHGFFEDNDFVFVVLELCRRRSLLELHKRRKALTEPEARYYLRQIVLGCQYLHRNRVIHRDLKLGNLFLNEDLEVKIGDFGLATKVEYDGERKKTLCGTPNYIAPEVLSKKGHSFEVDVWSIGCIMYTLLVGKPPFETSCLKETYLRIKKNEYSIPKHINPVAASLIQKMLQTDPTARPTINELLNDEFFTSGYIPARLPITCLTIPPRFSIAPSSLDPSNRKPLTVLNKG

| SMILES | IC50 [1] [nM] | IC50 [2] [nM] | IC50 [3] [nM] | IC50 [4] [nM] | IC50 [5] [nM] | IC50 [6] [nM] | IC50 [7] [nM] | IC50 [8] [nM] |
| --- | --- | --- | --- | --- | --- | --- | --- | --- |
| COc1cc2ncn(-c3cc(OCc4ccccc4OC(F)(F)F)c(C(N)=O)s3)c2cc1OC [Example 107, 5-(5,6-Dimethoxy-1H-benzimidazol-1-yl)-3-{[2-(trifluoromethoxy)benzyl]oxy}thiophene-2-carboxamide] | < 100 | < 1000 | 1000 to 10000 | 1000 to 10000 | 1000 to 10000 | 1000 to 10000 | < 1000 | < 1000 |
| CS(=O)(=O)c1ccc2ncn(-c3cc(OCc4ccccc4C(F)(F)F)c(C(N)=O)s3)c2c1 [Example 121] | < 100 | 1000 to 10000 | 1000 to 10000 | > 10000 | 1000 to 10000 | > 10000 | 1000 to 10000 | 1000 to 10000 |
| COc1cc2ncn(-c3cc(OCc4ccncc4Br)c(C(N)=O)s3)c2cc1OC [Example 120, 3-[(3-Bromopyridin-4-yl)methoxy]-5-(5,6-dimethoxy-1H-benzimidazol-1-yl)thiophene-2-carboxamide] | < 100 | 1000 to 10000 | 1000 to 10000 | > 10000 | 1000 to 10000 | > 10000 | < 1000 | 1000 to 10000 |
| COc1cc2c(cc1OCCCN1CCCC1=O)ncn2-c1cc(OCc2ccccc2C(F)(F)F)c(C(N)=O)s1 [Example 134, 5-(6-(Methyloxy)-5-{[3-(2-oxo-1-pyrrolidinyl)propyl]oxy}-1H-benzimidazol-1-yl)-3-({[2-(trifluoromethyl)phenyl]methyl}oxy)-2-thiophenecarboxamide] | < 100 | 1000 to 10000 | 1000 to 10000 | > 10000 | 1000 to 10000 | > 10000 | 1000 to 10000 | 1000 to 10000 |
| COc1cc2ncn(-c3cc(OCc4ccccc4OC(F)F)c(C(N)=O)s3)c2cc1OC [Example 108, 3-{[2-(Difluoromethoxy)benzyl]oxy}-5-(5,6-dimethoxy-1H-benzimidazol-1-yl)thiophene-2-carboxamide] | < 100 | < 1000 | < 1000 | > 10000 | < 1000 | > 10000 | < 1000 | < 1000 |
| COc1cc2ncn(-c3cc(OS(=O)(=O)c4ccccc4C)c(C(N)=O)s3)c2cc1OC [Example 154, 2-(Aminocarbonyl)-5-(5,6-dimethoxy-1H-benzimidazol-1-yl)thien-3-yl-2-methylbenzenesulfonate] | < 100 | < 1000 | 1000 to 10000 | > 10000 | < 1000 | > 10000 | < 1000 | < 1000 |
| COc1cc2ncn(-c3cc(OC(C)c4ccccc4Cl)c(C(N)=O)s3)c2cc1OC (stereo not drawn) [Example 126, 3-[1-(2-Chlorophenyl)ethoxy]-5-(5,6-dimethoxy-1H-benzimidazol-1-yl)thiophene-2-carboxamide] |  | < 1000 | < 1000 | < 1000 | 1000 to 10000 | 1000 to 10000 | < 1000 | < 1000 |
| COc1cc2ncn(-c3cc(OCc4cccnc4Cl)c(C(N)=O)s3)c2cc1OC [Example 101, 3-[(2-Chloropyridin-3-yl)methoxy]-5-(5,6-dimethoxy-1H-benzimidazol-1-yl)thiophene-2-carboxamide] | < 100 | 1000 to 10000 | 1000 to 10000 | > 10000 | 1000 to 10000 | 1000 to 10000 | < 1000 | 1000 to 10000 |
| COc1cc2ncn(-c3cc(OCc4cc5c(cc4Cl)OCO5)c(C(N)=O)s3)c2cc1OC [Example 91, 3-[(6-Chloro-1,3-dibenzodioxol-5-yl)methoxy]-5-(5,6-dimethoxy-1H-benzimidazol-1-yl)thiophene-2-carboxamide] | < 100 | < 1000 | < 1000 | > 10000 | < 1000 | 1000 to 10000 | < 1000 | < 1000 |
| COc1cc2ncn(-c3cc(OCc4cccnc4F)c(C(N)=O)s3)c2cc1OC [Example 102, 5-(5,6-Dimethoxy-1H-benzimidazol-1-yl)-3-[(2-fluoropyridin-3-yl)methoxy]thiophene-2-carboxamide] | < 100 | 1000 to 10000 | 1000 to 10000 | > 10000 | 1000 to 10000 | > 10000 | < 1000 | 1000 to 10000 |
| COc1cc2ncn(-c3cc(OC(C)c4ccccc4C(F)(F)F)c(C(N)=O)s3)c2cc1OC (stereo not drawn) [Example 127] | < 100 | < 1000 | < 1000 | 1000 to 10000 | < 1000 | 1000 to 10000 | < 1000 | < 1000 |
| O=C(O)c1sc(-n2cnc3cc(Cl)c(Cl)cc32)cc1OCc1ccoc1 [Example 77, 5-(5,6-Dichloro-1H-benzimidazol-1-yl)-3-(3-furylmethoxy)thiophene-2-carboxylic acid] | < 100 | > 10000 | > 10000 | > 10000 | > 10000 | > 10000 | > 10000 |  |
| Cc1ccccc1COc1cc(-n2cnc3cc(Cl)ccc32)sc1C(=O)O [Example 34, 5-(5-Chloro-1H-benzimidazol-1-yl)-3-[(2-methylbenzyl)oxy]thiophene-2-carboxylic acid] | < 100 | > 10000 | > 10000 | > 10000 | > 10000 | > 10000 | > 10000 |  |
| NC(=O)c1sc(-n2cnc3ccccc32)cc1CCc1ccccc1 [Example 130, 5-(1H-Benzimidazol-1-yl)-3-(2-phenylethyl)thiophene-2-carboxamide] | 100 to 10000 | > 10000 | 1000 to 10000 | > 10000 | 1000 to 10000 | > 10000 | 1000 to 10000 |  |
| COc1ccc(COc2cc(-n3cnc4cc(OC)c(OC)cc43)sc2C(N)=O)cc1 [Example 128, 5-(5,6-Dimethoxy-1H-benzimidazol-1-yl)-3-[(4-methoxybenzyl)oxy]thiophene-2-carboxamide] | 100 to 10000 | 1000 to 10000 | > 10000 | > 10000 | 1000 to 10000 | > 10000 | 1000 to 10000 |  |
| COc1cc2ncn(-c3cc(OCc4ccccc4C(F)(F)F)c(C(N)=O)s3)c2cc1OCCCN(C)C [Example 135, 5-[6-{[3-(Dimethylamino)propyl]oxy}-5-(methyloxy)-1H-benzimidazol-1-yl]-3-({[2-(trifluoromethyl)phenyl]methyl}oxy)-2-thiophenecarboxamide] | < 100 | < 1000 | < 1000 | 1000 to 10000 | < 1000 | 1000 to 10000 | < 1000 |  |
| NC(=O)c1sc(-n2cnc3ccc(Br)cc32)cc1OCc1ccccc1C(F)(F)F [Example 62, 5-(6-Bromo-1H-benzimidazol-1-yl)-3-{[2-(trifluoromethyl)benzyl]-oxy}thiophene-2-carboxamide] | < 100 | < 1000 | < 1000 | 1000 to 10000 | < 1000 | > 10000 | < 1000 |  |
| Cc1ccccc1COc1cc(-n2cnc3cc(Cl)c(Cl)cc32)sc1C(=O)O [Example 66, 5-(5,6-Dichloro-1H-benzimidazol-1-yl)-3-[(2-methylbenzyl)oxy]-thiophene-2-carboxylic acid] | < 100 | > 10000 | > 10000 | > 10000 | > 10000 | > 10000 | > 10000 |  |
| NC(=O)c1sc(-n2cnc3cc(C(=O)NCCN4CCNC4=O)ccc32)cc1OCc1ccccc1C(F)(F)F [Example 156, 1-(5-(Aminocarbonyl)-4-{[2-(trifluoromethyl)benzyl]oxy}thien-2-yl)-N-[2-(2-oXoimidazolidin-1-yl)ethyl]-1H-benzimidazole-5-carboxamide] | < 100 | > 10000 | > 10000 | > 10000 | > 10000 | > 10000 | > 10000 |  |
| COc1cc2ncn(-c3cc(OCc4c(Cl)cccc4Cl)c(C(N)=O)s3)c2cc1OC [Example 64, 3-[(2,6-Dichlorobenzyl)oxy]-5-(5,6-dimethoxy-1H-benzimidazol-1-yl)thiophene-2-carboxamide] | < 100 | < 1000 | 1000 to 10000 | > 10000 | 1000 to 10000 | > 10000 | 1000 to 10000 |  |
